Assay [1] addresses T1, Mitogen-activated protein kinase 1 (Homo sapiens, UniProt P28482). The experiment in a line: Binding affinity to ATP-binding site of ERK2 (unknown origin) assessed as reduction in signal intensity in presence of […] by competitive 19F NMR spectroscopy. More on the design: concentration or dose not given beside the values.
Assay [2] deals with T1, Mitogen-activated protein kinase 1. The experiment in a line: Binding affinity to ATP-binding site of ERK2 (unknown origin) assessed as reduction in signal intensity by 19F NMR spectroscopy. More on the design: concentration or dose not given beside the values.
Assay [3] shares this target. The experiment in a line: Binding affinity to ATP-binding site of ERK2 (unknown origin) assessed as reduction in signal intensity in presence of L100919 at 1 mM by competitive surface plasmon resonance method. Set-up: scale not given: the % may be the effect or the level left. Background: Surface plasmon resonance follows binding to a sensor surface in real time, without labels.

Assay [4] shares this target. Kind of assay: Binding affinity to ATP-binding site of ERK2 (unknown origin) assessed as reduction in signal intensity in absence of competitor by 19F NMR spectroscopy. Set-up: concentration or dose not given beside the values.
The target is the same in assay [5]. Kind of assay: Binding affinity to ATP-binding site of ERK2 (unknown origin) assessed as reduction in signal intensity in presence of FR180204 at 1 mM by competitive surface plasmon resonance method. Set-up: scale not given: the % may be the effect or the level left.
Assay [6] shares this target. The experiment in a line: Binding affinity to ATP-binding site of ERK2 (unknown origin) by surface plasmon resonance method.
Assay [7] has the same target. Kind of assay: Binding affinity to ATP-binding site of ERK2 (unknown origin) assessed as reduction in signal intensity in presence of L100919 by competitive 19F NMR spectroscopy. Set-up: concentration or dose not given beside the values.
The target is the same in assay [8]. Kind of assay: Binding affinity to ATP-binding site of ERK2 (unknown origin) by isothermal titration calorimetry. (In general: In ITC the heat of successive injections is recorded.)

Molecules are shown by their SMILES. Calls of active or inactive are those of the source. The calls are words filed in the database; no cut-off is given here. Where only a bound is given, the exact number is not on record here.

As usually defined, the Kd is the equilibrium constant for the complex coming apart.

T1 sequence (P28482 whole entry): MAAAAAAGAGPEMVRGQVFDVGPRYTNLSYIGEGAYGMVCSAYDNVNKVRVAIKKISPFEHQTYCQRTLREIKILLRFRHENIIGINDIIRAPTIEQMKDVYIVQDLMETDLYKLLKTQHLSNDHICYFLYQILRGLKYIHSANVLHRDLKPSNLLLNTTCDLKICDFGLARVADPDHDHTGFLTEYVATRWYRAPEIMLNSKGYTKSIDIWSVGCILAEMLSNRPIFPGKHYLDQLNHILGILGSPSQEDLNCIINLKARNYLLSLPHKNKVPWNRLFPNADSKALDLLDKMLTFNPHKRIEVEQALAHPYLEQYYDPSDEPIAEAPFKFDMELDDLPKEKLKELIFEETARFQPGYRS

Turning to `O=C(O)c1ccc2nc(-c3ccccc3F)nn2c1`, the Activity in assay [1] came out at 17%; in assay [2] it was 47%; in assay [3] it was 12%; in assay [4] it was 35%; in assay [5], 14%; in assay [7], 24%. This molecule gave a Kd in assay [6] greater than 1000 µM.

As for `CC(C)(C)OC(=O)N1CCC2(CC1)C(=O)Nc1ccc(F)cc12`, the Activity in assay [1] was 13%; in assay [2], 39%; in assay [4], 45%; in assay [7] it was 15%.

On to `Fc1ccc2[nH]cc(C3CCOCC3)c2c1`, for which the Activity in assay [1] was 10%; in assay [2] it was 14%; in assay [3] it was 10%; in assay [4] it was 16%; in assay [7], 14%. In assay [6], the dissociation constant (Kd) is greater than 1000 µM.

On to `CC(C)(C)OC(=O)N1CCC(CN)(Cc2ccc(C(F)(F)F)cc2)CC1`, for which the Activity in assay [2] was 32%; in assay [4] it was 0%.

As to `Fc1cccc2c1CC1(CCOCC1)CN2`, the Activity in assay [1] came to 14%; in assay [2], 29%; in assay [4] it was 20%; in assay [7], 16%.

Turning to `CC(C)(C)OC(=O)N1CCC(CN)(Cc2cccc(C(F)(F)F)c2)CC1`, the Activity is 26% in assay [2] and 9% in assay [4]. For the same molecule, in assay [6], the Kd is greater than 1000 µM.

Regarding `CC(C)(C)OC(=O)N1CCC(Cc2cccc(C(F)(F)F)c2)(C(=O)O)CC1`, the Activity in assay [1] worked out at 23%; in assay [2], 26%; in assay [4] it was 30%; in assay [7], 25%. Also, the Kd in assay [6] was greater than 1000 µM.

As to `NCc1cn(Cc2ccccc2F)cn1`, the outcome in assay [2] was inactive.

On to `N[C@H]1CC[C@H](N2Cc3cc(F)ccc3C2=O)CC1`, for which the result in assay [2] was inactive.

In the case of `COCCCNc1ccc(F)cc1[N+](=O)[O-]`, the Activity in assay [1] worked out at 10%; in assay [2] it was 29%; in assay [4], 15%; in assay [7], 14%.

In the case of `Fc1cccc(-c2nnc3ccc(Br)cn23)c1`, the Activity in assay [1] amounted to 16%; in assay [2], 54%; in assay [4], 49%; in assay [5], 12%; in assay [7], 20%. In assay [6], this molecule returned a dissociation constant (Kd) greater than 1000 µM.

Regarding `O=C1c2cccc(F)c2CN1[C@H]1CCCNC1`, the Activity in assay [1] is -1%; in assay [2], 32%; in assay [3], 26%; in assay [4], 22%; in assay [5] it was 31%; in assay [7] it was 8%. The molecule further showed a Kd in assay [6] greater than 1000 µM.

For `Fc1ccc2[nH]cc(C3CCCNC3)c2c1` (centres undefined), the Activity in assay [1] came to 9%; in assay [2] it was 10%; in assay [4], 20%; in assay [7], 9%. In assay [6], this molecule had a Kd greater than 1000 µM.

`N[C@H]1CC[C@H](N2Cc3c(F)cccc3C2=O)CC1`: the Activity in assay [2] came out at 41%; in assay [3], 12%; in assay [4] it was 9%; in assay [5], 15%. The molecule further returned a Kd in assay [6] of 495 µM.

Take `Nc1cnc(Nc2ccc(C(F)(F)F)cc2)nc1`: the Activity in assay [1] was determined as 7%; in assay [2], 40%; in assay [4], 26%; in assay [5], 14%; in assay [7] it was 5%. For the same molecule, the Kd in assay [6] was greater than 1000 µM.

Consider `Fc1ccc2c(CC3CCOCC3)c[nH]c2c1`, for which the Activity came to 22% in assay [1]; 36% in assay [2]; 24% in assay [4]; 25% in assay [5]; 23% in assay [7]. This molecule displayed a Kd in assay [6] greater than 1000 µM.

On to `NC1CCN(c2cccc(F)c2[N+](=O)[O-])CC1`, for which the Activity in assay [2] is 39%; in assay [4] it was 10%. This molecule also registered a Kd in assay [6] greater than 1000 µM.

With `FC(F)(F)c1cnn2cc(Br)cnc12`, the Activity is -4% in assay [1], 33% in assay [2], 22% in assay [4] and 5% in assay [7].

For `Fc1ccc2[nH]cc(CC3CCOCC3)c2c1`, the Activity in assay [1] amounted to 19%; in assay [2] it was 28%; in assay [4], 30%; in assay [7], 20%. In addition, the Kd was found to be 929 µM in assay [6] and 410 µM in assay [8].

In the case of `FC(F)(F)c1ccnc(NC2CCNCC2)c1`, the Activity in assay [2] is 11%; in assay [4], 9%; in assay [5], 20%. Besides, the equilibrium dissociation constant (Kd) in assay [6] is 989 µM.

Turning to `CCOc1cc(N)cc(C(F)(F)F)c1`, the Activity in assay [3] stood at 17%. The molecule also came in with a dissociation constant (Kd) in assay [6] greater than 1000 µM.

On to `Nc1ccc2nc(-c3ccc(F)cc3)nn2c1`, for which the Activity in assay [1] is 15%; in assay [2], 43%; in assay [4], 26%; in assay [7] it was 24%. In addition, the equilibrium dissociation constant (Kd) in assay [6] is greater than 1000 µM.

As for `O=C1c2ccc(F)cc2CN1[C@H]1CCCNC1`, the Activity in assay [1] came out at 2%; in assay [2], 66%; in assay [4], 67%; in assay [7], 8%. The same molecule came in with a Kd in assay [6] greater than 1000 µM.

With `O=C1c2ccc(F)cc2CN1C1CCNCC1`, the Activity in assay [2] was 13%; in assay [4], 7%. In assay [6], this molecule showed an equilibrium dissociation constant (Kd) greater than 1000 µM.

As for `CC(C)(C)OC(=O)N[C@H]1CCN(c2ncccc2[N+](=O)[O-])C1`, the Activity in assay [2] turned out to be 20%; in assay [4], 2%. This molecule also registered a dissociation constant Kd in assay [6] greater than 1000 µM.

For `NCc1cn(Cc2ccccc2C(F)(F)F)cn1`, in assay [2], the outcome was inactive. Further, the Kd in assay [6] is greater than 1000 µM.

In the case of `Nc1c(F)cccc1N1CCCCC1`, the Activity in assay [1] is 7%; in assay [2], 31%; in assay [3] it was 17%; in assay [4] it was 17%; in assay [5] it was 10%; in assay [7], 12%.

On to `Nc1cnc2c(C(F)(F)F)cnn2c1`, for which the Activity in assay [2] was 33%; in assay [3], 19%; in assay [4], -12%; in assay [5], 23%.
